Measured values reported in patent US9352013B2, “Uses of bremelanotide in therapy for female sexual dysfunction” (Palatin Technologies, Inc., priority 2012, dated 2016).
“Also recorded” adds a separate entry of the source.

Assay: Example 1: adverse events and discontinuations
Format: in vivo, human
Details: for Adverse event leading to withdrawal: Flushing, subjects (%) / Adverse event leading to withdrawal: Hypertension, subjects (%) / Adverse event leading to withdrawal: Nausea, subjects (%) / Adverse event leading to withdrawal: Vomiting, subjects (%) / Adverse event: Any leading to withdrawal, subjects (%) / Adverse event: Any, subjects (%) / Adverse event: Flushing, subjects (%) / Adverse event: Headache, subjects (%) / Adverse event: Injection-site pain, subjects (%) / Adverse event: Injection-site pruritus, subjects (%) / Adverse event: Nausea, subjects (%) / Adverse event: Upper respiratory tract infection, subjects (%): double-blind treatment
Procedure: A multi-centered, placebo-controlled, randomized, parallel group trial with fixed dose levels and designed to identify appropriate doses of bremelanotide administered by subcutaneous injection in premenopausal females with FSAD and/or HSDD, under the conditions of home use, was conducted. Subjects received a single dose of placebo (subject-blinded) in-clinic followed by 4 weeks of subject-blinded placebo treatment at home (subjects self-administered treatment as needed). Subjects who continued to qualify for the trial then received 2 single in-clinic doses of randomized treatment (double-blind; approximately one week apart), followed by 12 weeks of double-blind treatment at home (subjects self-administered treatment as needed).
Bremelanotide was well-tolerated during the trial. The most common types of treatment-emergent adverse events reported more frequently in the bremelanotide arms were facial flushing, nausea, emesis and headache. The study dosed 395 patients. A total of 26 patients discontinued from the study based on preset blood pressure change criterion spread across all arms (N=26, Placebo: 6, bremelanotide arms—0.75 mg: 4, 1.25 mg: 9, 1.75 mg: 7). A total of 19 patients discontinued from the study based on adverse events spread across all arms (N=19, Placebo: 5, bremelanotide arms—0.75 mg: 2, 1.25 mg: 4, 1.75 mg: 8). The adverse events that most commonly lead to discontinuation (other than meeting the blood pressure criterion) were flushing, nausea and emesis. Based on a safety review by an independent Data Safety Monitoring Board, no significant safety issues or concerns were identified during the study. […] Adverse events during the double-blind treatment period are shown on Table 6 below.

Which “Patients discontinued based on adverse events” value (shortened to “Patients discontinued based”) (0.75 mg SC) does the source give for `CCCC[C@H](NC(C)=O)C(=O)N[C@H]1CC(=O)NCCCC[C@@H](C(=O)O)NC(=O)[C@H](Cc2c[nH]c3ccccc23)NC(=O)[C@H](CCCNC(=N)N)NC(=O)[C@@H](Cc2ccccc2)NC(=O)[C@H](Cc2c[nH]cn2)NC1=O` [bremelanotide, Ac-Nle-cyclo(-Asp-His-D-Phe-Arg-Trp-Lys)-OH] here?
The value was 2.

What about the “Patients discontinued on preset blood pressure change criterion” value (0.75 mg SC) of the same compound?
Its value is 4.

And the “Adverse event leading to withdrawal: Flushing, subjects (%)” value (0.75 mg SC (N = 100))?
Its value is 0.

And the “Adverse event leading to withdrawal: Hypertension, subjects (%)” value (0.75 mg SC (N = 100))?
Its value is 2 (2%).

What about the “Adverse event leading to withdrawal: Nausea, subjects (%)” value (0.75 mg SC (N = 100)) of the same compound?
Its value is 0.

And the “Adverse event leading to withdrawal: Vomiting, subjects (%)” value (0.75 mg SC (N = 100))?
The value was 0.

And the “Adverse event: Any leading to withdrawal, subjects (%)” value (“Adverse event: Any leading … (%)” for short) (0.75 mg SC (N = 100))?
Its value is 2 (2%).

And the “Adverse event: Any, subjects (%)” value (0.75 mg SC (N = 100))?
The value was 64 (64%).

And the “Adverse event: Flushing, subjects (%)” value (0.75 mg SC (N = 100))?
The value was 17 (17%).

And the “Adverse event: Headache, subjects (%)” value (0.75 mg SC (N = 100))?
The value was 9 (9%).

And the “Adverse event: Injection-site pain, subjects (%)” value (0.75 mg SC (N = 100))?
Its value is 6 (6%).

And the “Adverse event: Injection-site pruritus, subjects (%)” value (0.75 mg SC (N = 100))?
Its value is 4 (4%).

And the “Adverse event: Nausea, subjects (%)” value (0.75 mg SC (N = 100))?
Its value is 18 (18%).

And the “Adverse event: Upper respiratory tract infection, subjects (%)” value (0.75 mg SC (N = 100))?
The value was 8 (8%).

What about the “Patients discontinued based” value (1.25 mg SC) of the same compound?
Its value is 4.

And the “Patients discontinued on preset blood pressure change criterion” value (1.25 mg SC)?
The value was 9.

And the “Adverse event leading to withdrawal: Flushing, subjects (%)” value (1.25 mg SC (N = 99))?
Its value is 1 (1%).

What about the “Adverse event leading to withdrawal: Hypertension, subjects (%)” value (1.25 mg SC (N = 99)) of the same compound?
Its value is 0.

And the “Adverse event leading to withdrawal: Nausea, subjects (%)” value (1.25 mg SC (N = 99))?
The value was 0.

And the “Adverse event leading to withdrawal: Vomiting, subjects (%)” value (1.25 mg SC (N = 99))?
Its value is 1 (1%).

And the “Adverse event: Any leading … (%)” value (1.25 mg SC (N = 99))?
The value was 4 (4%).

What about the “Adverse event: Any, subjects (%)” value (1.25 mg SC (N = 99)) of the same compound?
The value was 61 (62%).

What about the “Adverse event: Flushing, subjects (%)” value (1.25 mg SC (N = 99)) of the same compound?
The value was 14 (14%).

What about the “Adverse event: Headache, subjects (%)” value (1.25 mg SC (N = 99)) of the same compound?
Its value is 9 (9%).

What about the “Adverse event: Injection-site pain, subjects (%)” value (1.25 mg SC (N = 99)) of the same compound?
The value was 6 (6%).

What about the “Adverse event: Injection-site pruritus, subjects (%)” value (1.25 mg SC (N = 99)) of the same compound?
The value was 4 (4%).

What about the “Adverse event: Nausea, subjects (%)” value (1.25 mg SC (N = 99)) of the same compound?
The value was 22 (22%).

What about the “Adverse event: Upper respiratory tract infection, subjects (%)” value (1.25 mg SC (N = 99)) of the same compound?
The value was 5 (5%).

What about the “Patients discontinued based” value (1.75 mg SC) of the same compound?
The value was 8.

What about the “Patients discontinued on preset blood pressure change criterion” value (1.75 mg SC) of the same compound?
The value was 7.

And the “Adverse event leading to withdrawal: Flushing, subjects (%)” value (1.75 mg SC (N = 98))?
Its value is 1 (1%).

And the “Adverse event leading to withdrawal: Hypertension, subjects (%)” value (1.75 mg SC (N = 98))?
The value was 1 (1%).

What about the “Adverse event leading to withdrawal: Nausea, subjects (%)” value (1.75 mg SC (N = 98)) of the same compound?
The value was 3 (3%).

What about the “Adverse event leading to withdrawal: Vomiting, subjects (%)” value (1.75 mg SC (N = 98)) of the same compound?
The value was 3 (3%).

And the “Adverse event: Any leading … (%)” value (1.75 mg SC (N = 98))?
Its value is 8 (8%).

What about the “Adverse event: Any, subjects (%)” value (1.75 mg SC (N = 98)) of the same compound?
The value was 67 (68%).

And the “Adverse event: Flushing, subjects (%)” value (1.75 mg SC (N = 98))?
The value was 17 (17%).

And the “Adverse event: Headache, subjects (%)” value (1.75 mg SC (N = 98))?
The value was 14 (14%).

And the “Adverse event: Injection-site pain, subjects (%)” value (1.75 mg SC (N = 98))?
Its value is 7 (7%).

And the “Adverse event: Injection-site pruritus, subjects (%)” value (1.75 mg SC (N = 98))?
The value was 6 (6%).

And the “Adverse event: Nausea, subjects (%)” value (1.75 mg SC (N = 98))?
Its value is 24 (24%).

And the “Adverse event: Upper respiratory tract infection, subjects (%)” value (1.75 mg SC (N = 98))?
The value was 4 (4%).

And the “Tolerability during the trial” value (0.75-1.75 mg SC)?
Its value is “generally well tolerated”.

What about the “Serious adverse events related to treatment” value (Example 1 study) of the same compound?
The value was “none were considered related; also recorded: no serious adverse events”.
